Laboratory results from patent US5696082A, “Hydroxamic acid derivatives” (British Biotech Pharmaceuticals Limited, priority 1993, dated 1997).

Tests used:
stromelysin = stromelysin (Homo sapiens, UniProt P08254); assay: Stromelysin inhibition (hydrolysis of 14C acetylated casein); format: biochemical; conditions: 37°, 16 hours, pH 7.5, 14C acetylated casein
Method: The potency of compounds of the invention as inhibitors of stromelysin was determined by the procedure of Cawston et al, (Biochem. J., 195, 159-165, 1981), hereby incorporated by reference, whereby a 1 mM solution of the compound being tested, or a dilution thereof, was incubated at 37° for 16 hours with stromelysin and ^14 C acetylate casein (buffered with 25 mM Hepes [Registered Trade Mark], pH 7.5 containing 5 mM CaCl2, 0.05% Brij [Registered Trade Mark] 35 and 0.02% NAN3). The casein was acetylated ^14 C casein prepared by the method of Cawston et al (ibid).

collagenase = collagenase (Homo sapiens, UniProt P03956); assay: Collagenase inhibition (hydrolysis of acetylated 14C collagen); format: biochemical; conditions: 37° C., 16 hours, pH 7.5, acetylated 14C collagen
Method: The potency of compounds of the invention as inhibitors of collagenase was determined by the procedure of Cawston and Barrett, (Anal. Biochem., 99, 340-345, 1979), hereby incorporated by reference, whereby a 1 mM solution of the compound being tested, or a dilution thereof, was incubated at 37° C. for 16 hours with collagen and collagenase (buffered with 25 mM Hepes [Registered Trade Mark], pH 7.5 containing 5 mM CaCl2, 0.05% Brij [Registered Trade Mark] 35 and 0.02% NAN3). The collagen Was acetylated 14C collagen prepared by the method of Cawston and Murphy, (Methods in Enzymology, 80, 711, 1981), hereby incorporated by reference. The samples were centrifuged to sediment undigested collagen, and an aliquot of the radioactive supernatant removed for assay on a scintillation counter as a measure of hydrolysis.

Sequence of collagenase (P03956 100-469): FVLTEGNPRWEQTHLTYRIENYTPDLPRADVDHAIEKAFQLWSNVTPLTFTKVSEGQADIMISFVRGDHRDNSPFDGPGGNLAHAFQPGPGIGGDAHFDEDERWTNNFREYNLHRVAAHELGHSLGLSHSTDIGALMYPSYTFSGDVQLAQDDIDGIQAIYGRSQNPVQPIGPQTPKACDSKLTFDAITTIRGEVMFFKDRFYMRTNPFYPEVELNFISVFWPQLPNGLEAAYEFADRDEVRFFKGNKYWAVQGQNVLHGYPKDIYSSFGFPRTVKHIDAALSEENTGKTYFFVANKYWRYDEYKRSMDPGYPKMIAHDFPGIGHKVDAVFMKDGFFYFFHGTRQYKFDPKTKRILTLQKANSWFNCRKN
Sequence of stromelysin (P08254 100-477): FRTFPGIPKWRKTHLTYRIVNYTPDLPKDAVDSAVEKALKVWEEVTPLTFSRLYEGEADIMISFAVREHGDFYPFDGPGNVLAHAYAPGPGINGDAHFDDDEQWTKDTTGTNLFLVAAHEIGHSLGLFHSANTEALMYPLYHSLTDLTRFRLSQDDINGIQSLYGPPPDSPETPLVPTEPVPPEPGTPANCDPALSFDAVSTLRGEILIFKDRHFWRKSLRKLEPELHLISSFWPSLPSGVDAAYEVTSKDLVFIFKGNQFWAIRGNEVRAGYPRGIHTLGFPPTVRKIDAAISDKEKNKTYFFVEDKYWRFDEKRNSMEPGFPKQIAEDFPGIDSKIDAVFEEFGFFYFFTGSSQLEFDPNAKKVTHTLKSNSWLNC

IC50 (stromelysin): 600 nM
IC50 (collagenase): 20 nM
SMILES: CNC(=O)[C@H](Cc1ccc(OCC(=O)N[C@@H]2O[C@H](CO)[C@@H](O)[C@H](O)[C@H]2NC(C)=O)cc1)NC(=O)[C@@H](CC(=O)NO)CC(C)C [Example 3, [4-(N-Hydroxyamino)-2R-isobutylsuccinyl]-O-[(2-acetamido-2-deoxy-β-D-glucopyranosyl)carboxamidomethyl]-L-tyrosine-N-methylamide]
